How the values were obtained:
Format in all cases: cell-based
[1] = target: T1, GluR3 (GluR3o, flop variant), homomeric AMPA-type receptor (Rattus norvegicus, UniProt P19492); experiment: two-electrode voltage clamp, Xenopus oocytes, agonist-evoked current; conditions: 100 μM, −80 mV, pH 7.4
[2] = system: metabotropic glutamate receptors (mGluRs, group I) expressed by rat brain mRNA; conditions: antagonist test, 10 μM quisqualate in the cerebellum mRNA test
[3] = target: GluR6 (GluR6(R), edited version), homomeric KA-type receptor (Rattus norvegicus, UniProt P42260, Q621R); experiment: two-electrode voltage clamp, Xenopus oocytes, block of kainate current
Sequence of GluR6 (GluR6(R), edited version), homomeric KA-type receptor (P42260 32-908 Q621R): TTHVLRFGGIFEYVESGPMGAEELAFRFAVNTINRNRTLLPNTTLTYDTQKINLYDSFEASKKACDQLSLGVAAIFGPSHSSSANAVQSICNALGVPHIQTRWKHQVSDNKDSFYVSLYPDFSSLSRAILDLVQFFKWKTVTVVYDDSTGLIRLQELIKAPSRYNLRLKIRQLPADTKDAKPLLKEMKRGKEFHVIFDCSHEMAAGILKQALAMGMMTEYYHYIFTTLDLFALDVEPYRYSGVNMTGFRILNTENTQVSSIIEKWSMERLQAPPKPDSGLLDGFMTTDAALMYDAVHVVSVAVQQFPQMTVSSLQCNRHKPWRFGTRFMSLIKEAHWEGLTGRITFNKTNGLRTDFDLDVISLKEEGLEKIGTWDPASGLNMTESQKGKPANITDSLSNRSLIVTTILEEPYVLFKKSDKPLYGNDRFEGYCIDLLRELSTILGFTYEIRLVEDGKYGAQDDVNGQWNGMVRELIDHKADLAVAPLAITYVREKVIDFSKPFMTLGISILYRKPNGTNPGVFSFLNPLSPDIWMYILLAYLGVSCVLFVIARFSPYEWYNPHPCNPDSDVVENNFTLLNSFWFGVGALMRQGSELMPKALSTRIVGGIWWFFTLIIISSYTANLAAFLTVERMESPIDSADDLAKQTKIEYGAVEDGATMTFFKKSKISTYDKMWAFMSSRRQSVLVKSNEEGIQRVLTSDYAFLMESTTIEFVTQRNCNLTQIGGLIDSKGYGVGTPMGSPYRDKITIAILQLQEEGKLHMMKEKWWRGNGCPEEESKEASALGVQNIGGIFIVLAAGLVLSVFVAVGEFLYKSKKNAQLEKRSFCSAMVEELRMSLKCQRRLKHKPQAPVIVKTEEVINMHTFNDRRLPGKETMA

[4] = target: T1, GluR3 (GluR3o, flop variant), homomeric AMPA-type receptor; experiment: as above
[5] = system: AMPA receptors expressed by rat cerebral cortex mRNA; experiment: as above; conditions: competitive antagonist; 100 μM kainate; −80 mV; pH 7.4; 19–21°C

Row | Compound | two-electrode voltage clamp, Xenopus oocytes, agonist-evoked current [1] | IC50 [2] [nM] | IC50 [3] [nM] | IC50 [4] [nM] | IC50 [5] [nM]
1 | C=C(C)[C@H]1CN[C@H](C(=O)O)[C@H]1CC(=O)O [kainate] | GluR3 receptors, similarly to the AMPA receptors expressed by mRNA, generated large KA-currents | – | – | – | –
2 | N[C@@H](C(=O)O)[C@H](O)[C@@]1(C(=O)O)CC[C@H](C[C@H](NC(=O)c2cc(Cl)c(O)c(Cl)c2)C(=O)O)N1 [(−)-kaitocephalin] | – | > 100000 | ~100000 | 502 ± 55 | 242 ± 37

Reference: PMC2860192 (ACS chemical neuroscience, 2010)
